{"source": "patent US20040265323A1", "about": "“Compositions comprising pathogen elicited epithelial chemoattractant (eicosanoid hepoxilin A3), inhibitors thereof and methods of use thereof” (priority 2003, published 2004)", "key": {"hepoxilin A3 secretion": {"tested_on": "hepoxilin A3 secretion", "assay": "Hepoxilin A3 release from P. aeruginosa infected A549 cell monolayers", "assay_type": "cell-based, human", "details": "A549 treated with inhibitor prior to P. aeruginosa infection; listed as 12-LO inhibitor", "description": "(§1) It was further determined whether similar hepoxilin A3 recruitment of PMN by apically attached pathogens might occur at other mucosal surfaces. Pseudomonas aeruginosa is the most prominent bacterial spp. present during chronic infection in cystic fibrosis and chronic obstructive pulmonary disease patients and is accompanied by severe inflammation, including the emigration of PMN to the airway lumen (Pizurki et al., 2000; Jahn et al., 2000; Weiss, S. 1989). As a model for the airway epithelium the A549 cell line was used. This cell line is capable of forming a polarized barrier, and is widely employed as a model for the airway epithelial surface (Smart and Casale, 1994). […] Finally, the secretion of hepoxlin A3 in vitro was quantified using this A549 model system. For these experiments, A549 lung epithelial cells (ATTC) were grown in F12K media (Invitrogen) with 10% FBS, and maintained in culture similar to the T84 cell line. The wild type P. aeruginosa (PAO1) was used for infection of A549 after overnight aerobic growth (Luria broth) at 37° C.\nThe apical compartment of A549 cell monolayers treated for 90 minutes with P. aeruginosa had approximately 210 pmoles in the apical compartment and nearly 130 pmoles in the basolateral compartment. […]"}, "12-LO pathway": {"tested_on": "12-LO pathway", "assay": "12-S-HETE ELISA of lumenal fluid of S. typhimurium-infected xenografts", "assay_type": "in vivo, human", "details": "S. typhimurium-infected xenografts with baicalein; average of two lumens", "method": "(§2) Further, the effect of baicalein on S. typhimurium pathology in human intestinal xenografts was determined (Savidge et al., 1995) (FIG. 7). The human fetal intestinal xenograft model used in the present study has been previously described in detail (Savidge et al., 1995). Briefly, human fetal small intestine (n=3, gestational age 10-14weeks) was transplanted subcutaneously into C.B-17 severe-combined immunodeficient (SCID) mice. Xenografts were allowed to develop for a period between 10-20 weeks before use at which time the epithelium and underlying mucosa is fully differentiated (Savidge et al., 1995). Xenografts were infected with approximately 5×10^7 wild type S. typhimurium SL1344 in sterile HBSS(+) buffer in a 100 μl volume injected intralumenally by subcutaneous injection. […]\n(§3) It was further confirmed that treatment of the intestinal xenografts with baicalein inhibited the 12-LO pathway by measuring the amount of 12-S-HETE, a major 12-LO metabolite, released into the lumenal fluid. […] Finally, it was determined that there was no statistical difference in the amount IL-8 produced in the S. typhimurium-infected intestinal xenografts in the absence compared to the presence of baicalein treatment (200±53 pg/mg compared to 225±30 pg/mg, respectively, verses 52±11 pg/mg for uninfected control). […]"}, "[1]": {"tested_on": "P. aeruginosa-induced PMN transepithelial migration, A549 cells", "assay": "P. aeruginosa-induced PMN transepithelial migration across A549 cell monolayers", "assay_type": "cell-based, human", "details": "A549 monolayers, FIG. 5C", "description": "as §1"}, "IL-8 production": {"tested_on": "IL-8 production", "assay": "IL-8 produced in S. typhimurium-infected intestinal xenografts", "assay_type": "in vivo, human", "details": "S. typhimurium-infected xenografts in the presence of baicalein", "method": "as §2, §3"}, "[2]": {"tested_on": "PEEC/hepoxilin A3 secretion", "assay": "Apical PEEC/hepoxilin A3 release from S. typhimurium infected T84 cell monolayers", "assay_type": "cell-based, human", "details": "S. typhimurium infected T84 with 12-LO inhibitor", "description": "T84 cell monolayers were infected with S. typhimurium in the absence or presence of the 12-LO enzyme inhibitor and apical supernatants were examined for PEEC bioactivity. […] Moreover, since it had been previously shown that S. typhimurium via its effector SipA initiates an ARF6-dependent lipid-signaling cascade that directs the activation of PKC and release of PEEC, it was further examined if blocking PKC activity (which would occur upstream of 12-LO) also corresponds with a reduction in hepoxilin A3 bioactivity and release, as one would predict."}}, "note": "“Also recorded” adds a separate entry of the source."}
{"smiles": "O=c1cc(-c2ccccc2)oc2cc(O)c(O)c(O)c12", "note": "[baicalein]", "values": [{"measurement": "hepoxilin A3 levels released", "setting": "hepoxilin A3 secretion", "value": "no detectable levels of hepoxilin A3"}, {"measurement": "12-S-HETE in lumenal fluid", "setting": "12-LO pathway", "value": 21.5, "unit": "ng/mL"}, {"measurement": "P. aeruginosa-induced PMN transepithelial migration with 12-LO inhibitor", "setting": "[1]", "value": "inhibited"}, {"measurement": "IL-8 produced", "setting": "IL-8 production", "value": "225 ± 30", "unit": "pg/mg"}, {"measurement": "PEEC secretion (bioactivity of apical supernatants)", "setting": "[2]", "value": "significant decrease in PEEC secretion; also recorded: dramatically reduced"}]}
